Earlier results in patent publication US20110021470A1, “METHODS FOR TREATING CANCER COMPRISING THE ADMINISTRATION OF A VITAMIN D COMPOUND AND AN ADDITIONAL THERAPEUTIC AGENT, AND COMPOSITIONS CONTAINING THE SAME” (Cougar Biotechnology, Inc., priority 2006, published 2011).

Tests used:
[1] = in vivo
[2] = in vivo; remark: listed apart in the source
[3] = test system: cell growth and differentiation
[4] = oral lipid formulations (medium chain triglyceride, long chain triglyceride) compared with a formulation containing propylene glycol

In the case of “1(S),3(R)-dihydroxy-20(R)-(5′-ethyl-5′-hydroxyhepta-1′(E),3′(E)-dien-1′-yl)-9,10-secopregna-5(Z),7(E),-10(19)-triene [Seocalcitol]”, the calcemic activity [1] is given as “low”, the “calcemic activity relative to 1α,25-dihydroxycholecalciferol” value ([1]; versus 1α,25-dihydroxycholecalciferol) is given as “approximately 50 % weaker” and the biological half-life [2] is given as “suitable for systematic use”. For the same substance, the anti-proliferative activity [3] was “strong”, the “potency in regulation of cell growth and differentiation relative to 1α,25-dihydroxycholecalciferol” value ([3]; in vitro and in vivo, versus 1α,25-dihydroxycholecalciferol) was 50-200 times more potent and the bioavailability of seocalcitol [4] was “twofold higher”.
